Assay results published in a melting point compilation (Tetko et al.; mined from patent text by program, amines drawn as free bases though some values may be those of a salt).

| SMILES | melting point |
| --- | --- |
| CC(C)OC(=O)C1CCCn2c(C(=O)c3ccc(F)cc3)ccc21 (centres undefined) | 92 °C |
| COc1nc2cc(Cl)c(Cl)c(-n3cnnc3-c3cccnc3)c2nc1OC | 206 to 207 °C |
| CCOC(=O)N1c2cc(OC)c(OC)cc2C(=O)C(=CNC)C1C (centres undefined) | 154 to 156 °C |
| CCOC(C)n1cnc(C(N)=O)n1 (centres undefined) | 163 to 166 °C |
| O=c1c(-c2cccc(F)c2)coc2c(O)c(O)ccc12 | 230 °C |
| COC1Nc2c(O)cccc2C(=O)N2CCCC12 (centres undefined) | 150 to 153 °C |
| CCOC(=O)Cc1sc(SCc2ccc(C(=O)OC)s2)nc1C | 49 to 51 °C |
| O=C(Nc1ccc(Cl)cc1)/C(Br)=C/Br | 99.5 to 100 °C |
| CC(C)C(N)=C(C#N)C#N | 163 to 164 °C |
| CCNC(=O)n1nc(Oc2c(Cl)cc(C(F)(F)F)cc2Cl)cc1-c1ccc(Cl)cc1 | 88 to 89 °C |
| CCCc1c(CSc2nnc(SCCCS(=O)(=O)CC(=O)O)s2)ccc(C(C)=O)c1O | 122 to 125 °C |
| O=C(Nc1ccc(N2CCN(C(=O)C(O)c3ccccc3Cl)CC2)nc1)Nc1ccccc1F (centres undefined) | 127 to 128 °C |
| COc1ccnc(CCc2nc3cc(-c4ccc(S(=O)(=O)N5CCC(C)CC5)cc4)cnc3[nH]2)c1 | 186 to 188 °C |
| NS(=O)(=O)C(F)(F)C(F)(F)C(F)(F)C(F)(F)C(F)(F)C(F)(F)F | 165 to 168 °C |
| O=C1CCC(c2ccc(-c3ccc(F)cc3)o2)O1 (centres undefined) | 57 to 59 °C |
| CC=Cc1cccc2c(=O)c(C)c(C(=O)O)oc12 | 224 to 228 °C |
| NS(=O)(=O)c1ccc(-c2nc(C(F)(F)F)[nH]c2-c2ccc(F)cc2)cc1 | 259 to 260 °C |
| CN1CCN(c2c(F)cc3c(=O)c(C(=O)O)cn(C4COC4)c3c2Cl)CC1 | 211 to 212 °C |
| O=C(NC1CN2CCC1CC2)C1(O)c2ccccc2-c2ccccc21 (centres undefined) | 230 °C |
| Cc1ccccc1-c1cc(N2CCN(C(=O)CO)CC2)ncc1C(=O)N(C)Cc1cc(C(F)(F)F)cc(C(F)(F)F)c1 | 91 to 93 °C |
| Nc1nc2ccc(C(O)C(COc3ccccc3)N3CCC(Cc4ccccc4)CC3)cc2s1 (centres undefined) | 210 to 214 °C |
| CS(=O)c1ccccc1C(=O)Nc1ccccc1 (centres undefined) | 194 to 195 °C |
| O=CC(=Cc1ccccc1OCc1ccc(Cl)cc1)C(C=O)=Cc1ccccc1OCc1ccc(Cl)cc1 | 186 to 187 °C |

| SMILES | melting point |
| --- | --- |
| CNC(=O)c1ccn2nc(-c3ccccc3)c(-c3ccc(=O)n(C(C)C)n3)c2c1 | 225 to 226 °C |
| CCCCC(C)(CC)C(=O)C(Oc1ccc(-c2ccccc2)cc1)n1cnnc1 (centres undefined) | 67 to 68 °C |
| CN(C(=O)C(F)(F)F)C1(C)CN(c2nc3c(cc2F)c(=O)c(C(=O)O)cn3C(C)(C)C)C1 | 263 to 265 °C |
| Brc1cncc2cccnc12 | 79 to 81 °C |
| COc1ccc(C(=O)c2c(-c3ccc(OCCN4CCCC4)cc3)sc3cc(OCc4ccccc4)ccc23)cc1OC | 74 to 77 °C |
| CCOc1cc(CCC2OC(=O)NC2=O)ccc1O (centres undefined) | 154 to 155 °C |
| O=C1NC(=O)c2c1c(-c1ccccc1Cl)cc1oc3cc(CCCCO)c(O)cc3c21 | 256 to 259 °C |
| O=C(Cl)N1CCC(Oc2cccc3c2CCC3)C1 (centres undefined) | 128 to 129 °C |
| CC(C)OCc1nc(N)c2nccnc2n1 | 139 to 141 °C |
| COc1ccc([C@@H]2CN(C)CC[C@@H]2NC(=O)c2ccc(Cl)c(Cl)c2)cc1OC (relative stereo) | 134 to 135 °C |
| CCCCN1CC2CN(c3ccc([N+](=O)[O-])cc3[N+](=O)[O-])CC(C1)C2(C)C | 119 °C |
| O=C1c2ccccc2C(=O)N1CCOc1nc(-c2ccccc2)c2cc(Cl)ccc2n1 | 155 °C |
| CC(=O)OCC(=O)c1ccc(C)cc1 | 85 °C |
| N#Cc1cc(OCCOCC2CC2)ccc1OCC(O)CNCCNC(=O)Nc1ccccc1 (centres undefined) | 110 to 113 °C |
| CCOC(=O)Nc1c(C)cc(Cc2cnc(N)nc2N)cc1C | 192 to 193 °C |
| CNc1c(F)cc2c(=O)c(C(=O)O)cn(-c3nc(N)c(F)cc3F)c2c1F | 270 to 273 °C |
| CCCc1c(OCCCOc2ccc(C(=O)O)cc2Br)ccc(C(C)=O)c1OC(=O)CC | 136 to 137 °C |
| COCCNc1nc(-n2ccnc2)nc2ccc(CO)cc12 | 165 to 168 °C |
| CSc1cc(C)nc(SC)c1NC(=O)C=CC1=C(c2ccccc2)c2ccccc2OC1 | 225 to 227 °C |
| O=c1[nH]ncc2cc(Br)ccc12 | 280 to 283 °C |
| COc1cccc2c1N(S(=O)(=O)c1ccc(-c3ccc(F)cc3F)cc1)C(C(=O)NCc1ccc(C(=O)O)cc1)C2 (centres undefined) | 218 °C |
| COc1ccc(CCc2cc3cc(C#N)ccc3o2)c(CC(=O)OCc2ccccc2)c1 | 127 to 128 °C |
| O=C1c2ccccc2C(=O)N1CCCCc1nc[nH]n1 | 169 to 171 °C |

Further lines, results first:

| melting point | SMILES |
| --- | --- |
| 158 to 163 °C | c1ccc(CNc2nc(-c3cccs3)nc3ccccc23)cc1 |
| 88 to 89 °C | O=C/C=C/C=C/c1ccc(OCC(F)(F)C(F)F)nc1 |
| 235 to 236 °C | Cc1cc(-c2nc3c(C)cc(Cl)nn3c2-c2ccnc(NC(=O)c3ccc(F)cc3)c2)ccc1F |
| 139 to 140 °C | N#Cc1c(N2CCc3ccccc3CC2)nc[nH]c1=O |
| 136 to 138 °C | C=C1N(c2ccccc2)C(=O)OC12CCN(CCC=C(c1ccc(F)cc1)c1ccc(F)cc1)CC2 |
| 45 to 46 °C | CCOC(=O)COc1cccc(CN2C(=O)C3(COc4cc5c(cc43)CCO5)c3ccccc32)c1 (centres undefined) |
| 185 °C | CC(=O)Nc1cccnc1NC(=O)C(C)(C)Oc1cccc(Cl)n1 |
| 160 to 161 °C | CC(=O)C1CCC2C3CCC4CC(O)CCC4(C)C3=CCC12C (centres undefined) |
| 130 to 133 °C | CCn1c2ccccc2c2cc3cccc(C=O)c3cc21 |
| 96 °C | Nc1nn(CCN2CCCCC2)cc1-c1ccccc1 |
| 126 to 128 °C | COC(=O)C(C)Oc1ccc(Nc2cc(NC(C)=O)c(F)cc2[N+](=O)[O-])cc1 (centres undefined) |
| 140 to 144 °C | CC(C)N1CC2(COc3ccc([N+](=O)[O-])cc3OC2)OC1=O (centres undefined) |
| 138 to 139 °C | CC(=O)NCCCCC(NC(C)=O)C(=O)O (racemic) |
| 166 °C | O=C(c1ccc(C#Cc2ccccc2)cc1)c1ccc(Oc2ccccc2)cc1 |
| 292 to 298 °C | O=C1C=C(c2c[nH]c3ccc(O)cc23)C(=O)N1 |
| 169 to 171 °C | Nc1sc2c(c1C(=O)c1ccc3ccccc3c1)CCN(Cc1ccccc1Cl)C2 |
| 173 to 175 °C | COc1cc(OC)nc(NC(=O)NS(=O)(=O)Oc2ccccc2-c2csnn2)n1 |
| 121 to 124 °C | CC(C)c1ccc(C2(OC(=O)C(C)(C)C)C(=O)c3ccccc3C2=O)c(OC(=O)C(C)(C)C)c1 |
| 145 to 147 °C | CCCC1=C(C(=O)OCC)C(c2ccccc2Cl)c2cn(C(=O)Nc3ccccc3)nc2N1 (centres undefined) |
| 250 °C | O=C(Nc1ccc2ccc(Cl)nc2n1)C1CC1 |
| 174 °C | CSC(CC(CCCl)C(=O)c1ccccc1)C(N)C(N)=O (centres undefined) |
| 125 to 129 °C | NCc1ccc(C(=O)NC2CCN(C3CCCCC3)C2)cc1 (centres undefined) |
| 172 to 177 °C | O=C(O)c1cc(C(c2ccccc2)c2ccccc2)ccn1 |
